Reference: PubChem BioAssay (NCI)
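A five-concentration, 48-hour dose response in 96-well plates underlies each endpoint, interpolated linearly between surrounding concentrations. TGI is the concentration that stops growth completely.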

Legend:
Test in all cases: growth of human tumour cells (NCI), 48 h
[1] = test system: OVCAR-4 ovarian
[2] = test system: HCC-2998 colon
[3] = test system: HL-60(TB) leukemia
[4] = test system: NCI-H460 lung
[5] = test system: MOLT-4 leukemia
[6] = test system: RPMI-8226 leukemia
[7] = test system: IGROV1 ovarian
[8] = test system: HOP-92 NSCLC
[9] = test system: NCI-H23 lung
[10] = test system: EKVX NSCLC
[11] = test system: TK-10 renal
[12] = test system: SR leukemia
[13] = test system: MDA-MB-231 breast
[14] = test system: M14 melanoma
[15] = test system: DU-145 prostate
[16] = test system: MDA-N

Compound	TGI [1] [µM]	TGI [2] [µM]	TGI [3] [µM]	TGI [4] [µM]	TGI [5] [µM]	TGI [6] [µM]	TGI [7] [µM]	TGI [8] [µM]	TGI [9] [µM]	TGI [10] [µM]	TGI [11] [µM]	TGI [12] [µM]	TGI [13] [µM]	TGI [14] [µM]	TGI [15] [µM]	TGI [16] [µM]
CC1CC(C)(O)C2C3(C)CCCC2(COC3=O)C12CCC1(CCOC1=O)O2 (stereo not drawn)	> 250	> 250	> 250	> 250	> 250	> 250	> 250	> 250	> 250	> 250						
Cc1csc2nc(-c3cc([N+](=O)[O-])c(Cl)cc3Cl)c(/C=N/N=C(N)N)n12	29.8	22.1	28.9	45.7	18.8	56.5	30	32.1	33	38.2	32.4	4.84	28	34.3	32.3	
COC(=O)[C@]12CC[C@H]3CN(S(=O)(=O)c4ccc(C)cc4)[C@H]([C@H]31)[C@H](c1ccco1)N2S(=O)(=O)c1ccc(C)cc1	> 100	> 100	91.5	> 100	> 100	86.2	> 100	62.8	> 100	> 100	> 100	> 100	> 100	92.4	> 100	73.7
CN(C)CCC(=O)[C@@]1(O)CC[C@H]2[C@@H]3CC=C4C[C@@H](O)CC[C@]4(C)[C@H]3CC[C@@]21C	> 78.2	60	37.7	30.9	53.1	7.01	34.3	39.7	56.1	42.6	6.96	39.4	32.8	34.2	19.9	34.5
CCCCCCCCCCCCCCCCCCN(C)CC(COC)OP(=O)([O-])OCC[N+](C)(C)C (stereo not drawn)	9.75	3.07	8.53	2.35	11	3.14	1.52	3.33	11.7	28.1	3.06	8.55		15	5.13	15.3
O=C1c2cc3c(cc2[C@@H]2C(O)[C@H]4O[C@H]4C4CCN1C42)OCO3 (stereo partly drawn)	> 37.5	> 37.5	> 37.5	> 37.5	> 37.5	> 37.5	> 37.5	> 37.5		> 37.5	> 37.5	> 37.5		> 37.5		
NC1=NC(c2ccc(Cl)cc2)=CC(c2cccc(Cl)c2)S1 (stereo not drawn)	60.5	80.9	> 100	> 100	> 100	44	> 100	60.1	> 100	96.9	60.7	72.5		> 100	> 100	52.9
c1ccc(-c2cc3nc4ccccc4nc3cc(-c3ccccc3)[nH][nH]2)cc1	> 100	> 100	53.5	> 100	> 100	> 100	> 100	> 100	> 100	> 100	51.8	> 100	> 100	> 100	> 100	> 100
CCn1c2ccccc2c2ccc(C3C4C(=O)N(c5cccc6ccccc56)C(=O)C4ON3C(C(N)=O)c3ccccc3)cc21 (stereo not drawn)	> 25		> 25	> 25	> 25		> 25	> 25	> 25	> 25	21.8	> 25	> 25	> 25	> 25	> 25
C/C=C\C1OC1(C)c1cc(=O)c2c(C)cc3c(c2o1)C(=O)c1c(O)c(C2CC(C)(N(C)C)C(OC(C)=O)C(C)O2)cc(C2CC(N(C)C)C(O)C(C)O2)c1C3=O (stereo not drawn)	0.00888	0.00646		0.0129	0.049	0.0574	0.183	0.0251	0.00871	0.0224	1.47		0.0285	0.00653	0.0912	0.00857
